Target: T1, Human M4 (Homo sapiens, UniProt P08173)
T1 construct: expressed in transfected cells; host or cells: CHO-K1 (ATCC), co-transfected with chimeric G protein Gqi5
T1 sequence (P08173 1-479): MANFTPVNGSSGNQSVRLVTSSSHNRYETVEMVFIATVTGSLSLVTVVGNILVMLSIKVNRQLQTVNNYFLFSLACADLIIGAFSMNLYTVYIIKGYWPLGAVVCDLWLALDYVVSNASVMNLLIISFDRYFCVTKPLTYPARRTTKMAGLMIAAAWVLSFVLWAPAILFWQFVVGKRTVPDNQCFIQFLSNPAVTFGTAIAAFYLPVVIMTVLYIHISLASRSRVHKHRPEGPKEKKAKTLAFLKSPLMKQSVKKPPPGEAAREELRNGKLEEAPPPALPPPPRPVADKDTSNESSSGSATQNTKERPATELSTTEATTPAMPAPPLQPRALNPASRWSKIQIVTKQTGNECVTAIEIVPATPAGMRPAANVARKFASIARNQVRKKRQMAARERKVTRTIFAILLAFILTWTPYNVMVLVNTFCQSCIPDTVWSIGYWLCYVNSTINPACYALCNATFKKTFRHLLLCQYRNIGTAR
Assay: mAChR M4 cell-based functional assay (calcium flux, antagonism of EC80 acetylcholine response)
Details: M4/Gqi5/CHO-K1 cells; for remaining activity at 30 µM: CHO-K1, % ACh maximum at 30 μM, read-out: Human M4 Emin; for IC50: decrease of response elicited by EC80 acetylcholine
Outline: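 CHO-K1 cells stably expressing human or rat M4 with Gqi5, Fluo-4 loaded; calcium measured by fluorescence ratio on FDSS. Compound added, then EC20 acetylcholine at 143 s and EC80 at 268 s; IC50 from decrease of EC80 response, four-parameter logistic fit.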

SMILES	remaining activity at 30 µM [%]	IC50 [nM]
Cc1c(-c2ccc(F)cc2)nnc(N[C@H]2C[C@@H]3CN(CC4CCOCC4)C[C@@H]3C2)c1C#N [compound 73, 6-(4-fluorophenyl)-5-methyl-3-(((3aR,5s,6aS)-2-((tetrahydro-2H-pyran-4-yl)methyl)octahydrocyclopenta[c]pyrrol-5-yl)amino)pyridazine-4-carbonitrile]	4	3.43
[2H]C([2H])(C1CCOCC1)N1C[C@H]2C[C@H](Nc3nnc(-c4cc(F)ccc4C)c(C)c3C(F)(F)F)C[C@H]2C1 [compound 74, (3aR,5s,6aS)-N-(6-(5-fluoro-2-methylphenyl)-5-methyl-4-(trifluoromethyl)pyridazin-3-yl)-2-((tetrahydro-2H-pyran-4-yl)methyl-d2)octahydrocyclopenta[c]pyrrol-5-amine]	2	159
[2H]C([2H])(C1CCOCC1)N1C[C@H]2C[C@H](Nc3nnc(-c4cc(F)ccc4F)c(C)c3C(F)(F)F)C[C@H]2C1 [compound 75, (3aR,5s,6aS)-N-(6-(2,5-difluorophenyl)-5-methyl-4-(trifluoromethyl)pyridazin-3-yl)-2-((tetrahydro-2H-pyran-4-yl)methyl-d2)octahydrocyclopenta[c]pyrrol-5-amine]	3	20.9
[2H]C([2H])(C1CCOCC1)N1C[C@H]2C[C@H](Nc3nnc(-c4ccccc4)c(C)c3C(F)(F)F)C[C@H]2C1 [compound 76, (3aR,5s,6aS)-N-(5-methyl-6-phenyl-4-(trifluoromethyl)pyridazin-3-yl)-2-((tetrahydro-2H-pyran-4-yl)methyl-d2)octahydrocyclopenta[c]pyrrol-5-amine]	3	12.1
[2H]C([2H])(C1CCOCC1)N1C[C@H]2C[C@H](Nc3nnc(-c4cc(F)cc(F)c4F)c(C4CC4)c3C(F)(F)F)C[C@H]2C1 [compound 77, (3aR,5s,6aS)-N-(5-cyclopropyl-4-(trifluoromethyl)-6-(2,3,5-trifluorophenyl)pyridazin-3-yl)-2-((tetrahydro-2H-pyran-4-yl)methyl-d2)octahydrocyclopenta[c]pyrrol-5-amine]	2	83.5
OC1(CN2C[C@H]3C[C@H](Nc4nnc(-c5cc(F)ccc5F)cc4C(F)F)C[C@H]3C2)CCOCC1 [compound 78, 4-(((3aR,5s,6aS)-5-((4-(difluoromethyl)-6-(2,5-difluorophenyl)pyridazin-3-yl)amino)hexahydrocyclopenta[c]pyrrol-2(1H)-yl)methyl)tetrahydro-2H-pyran-4-ol]	4	230
CC1(CN2C[C@H]3C[C@H](Nc4nnc(-c5cc(F)ccc5F)cc4C(F)F)C[C@H]3C2)CCOCC1 [compound 79, (3aR,5s,6aS)-N-(4-(difluoromethyl)-6-(2,5-difluorophenyl)pyridazin-3-yl)-2-((4-methyltetrahydro-2H-pyran-4-yl)methyl)octahydrocyclopenta[c]pyrrol-5-amine]	4	110
Fc1ccc(F)c(-c2cc(C(F)F)c(N[C@H]3C[C@@H]4CN(C[C@@H]5COCCO5)C[C@@H]4C3)nn2)c1 [compound 80, (3aR,5S,6aS)-2-(((R)-1,4-dioxan-2-yl)methyl)-N-(4-(difluoromethyl)-6-(2,5-difluorophenyl)pyridazin-3-yl)octahydrocyclopenta[c]pyrrol-5-amine]	4	5
Fc1ccc(F)c(-c2cc(C(F)F)c(N[C@H]3C[C@@H]4CN(C[C@H]5COCCO5)C[C@@H]4C3)nn2)c1 [compound 81, (3aR,5R,6aS)-2-(((S)-1,4-dioxan-2-yl)methyl)-N-(4-(difluoromethyl)-6-(2,5-difluorophenyl)pyridazin-3-yl)octahydrocyclopenta[c]pyrrol-5-amine]	4	180
Cc1ccc(C(F)(F)F)cc1-c1cc(C(F)F)c(N[C@H]2C[C@@H]3CN(CC4CCOCC4)C[C@@H]3C2)nn1 [compound 82, (3aR,5s,6aS)-N-(4-(difluoromethyl)-6-(2-methyl-5-(trifluoromethyl)phenyl)pyridazin-3-yl)-2-((tetrahydro-2H-pyran-4-yl)methyl)octahydrocyclopenta[c]pyrrol-5-amine]	4	49
Cn1cc2cc(-c3cc(C(F)F)c(N[C@H]4C[C@@H]5CN(CC6CCOCC6)C[C@@H]5C4)nn3)ccc2n1 [compound 83, (3aR,5s,6aS)-N-(4-(difluoromethyl)-6-(2-methyl-2H-indazol-5-yl)pyridazin-3-yl)-2-((tetrahydro-2H-pyran-4-yl)methyl)octahydrocyclopenta[c]pyrrol-5-amine]	5	2.3
Cc1c(-c2cc(C(F)F)c(N[C@H]3C[C@@H]4CN(CC5CCOCC5)C[C@@H]4C3)nn2)ccc2nn(C)cc12 [compound 84, (3aR,5s,6aS)-N-(4-(difluoromethyl)-6-(2,4-dimethyl-2H-indazol-5-yl)pyridazin-3-yl)-2-((tetrahydro-2H-pyran-4-yl)methyl)octahydrocyclopenta[c]pyrrol-5-amine]	3	0.89
COc1ccc(F)cc1-c1cc(C(F)F)c(N[C@H]2C[C@@H]3CN(CC4CCOCC4)C[C@@H]3C2)nn1 [compound 85, (3aR,5s,6aS)-N-(4-(difluoromethyl)-6-(5-fluoro-2-methoxyphenyl)pyridazin-3-yl)-2-((tetrahydro-2H-pyran-4-yl)methyl)octahydrocyclopenta[c]pyrrol-5-amine]	4	11
FC(F)c1cc(-c2ccccc2OC(F)(F)F)nnc1N[C@H]1C[C@@H]2CN(CC3CCOCC3)C[C@@H]2C1 [compound 86, (3aR,5s,6aS)-N-(4-(difluoromethyl)-6-(2-(trifluoromethoxy)phenyl)pyridazin-3-yl)-2-((tetrahydro-2H-pyran-4-yl)methyl)octahydrocyclopenta[c]pyrrol-5-amine]	5	19
Fc1ccc(C(F)(F)F)c(-c2cc(C(F)F)c(N[C@H]3C[C@@H]4CN(CC5CCOCC5)C[C@@H]4C3)nn2)c1 [compound 87, (3aR,5s,6aS)-N-(4-(difluoromethyl)-6-(5-fluoro-2-(trifluoromethyl)phenyl)pyridazin-3-yl)-2-((tetrahydro-2H-pyran-4-yl)methyl)octahydrocyclopenta[c]pyrrol-5-amine]	3	4.9
[2H]C([2H])(C1CCOCC1)N1C[C@H]2C[C@H](Nc3nnc(-c4cc(F)cc(F)c4F)cc3C(F)F)C[C@H]2C1 [compound 88, (3aR,5s,6aS)-N-(4-(difluoromethyl)-6-(2,3,5-trifluorophenyl)pyridazin-3-yl)-2-((tetrahydro-2H-pyran-4-yl)methyl-d2)octahydrocyclopenta[c]pyrrol-5-amine]	3	10

— patent US20230122344A1, “ANTAGONISTS OF THE MUSCARINIC ACETYLCHOLINE RECEPTOR M4” (Vanderbilt University, priority 2019, published 2023)
